Calls of active or inactive are those of the source.
Columns and labels:
[1] = target: T1, Replicative DNA helicase DnaB (Mycobacterium tuberculosis, UniProt P9WMR3); test: DnaB intein splicing inhibitors, dose response, biochemical, cell-free fluorescence (AID 449749); assay type: functional
T1 sequence (P9WMR3 whole entry): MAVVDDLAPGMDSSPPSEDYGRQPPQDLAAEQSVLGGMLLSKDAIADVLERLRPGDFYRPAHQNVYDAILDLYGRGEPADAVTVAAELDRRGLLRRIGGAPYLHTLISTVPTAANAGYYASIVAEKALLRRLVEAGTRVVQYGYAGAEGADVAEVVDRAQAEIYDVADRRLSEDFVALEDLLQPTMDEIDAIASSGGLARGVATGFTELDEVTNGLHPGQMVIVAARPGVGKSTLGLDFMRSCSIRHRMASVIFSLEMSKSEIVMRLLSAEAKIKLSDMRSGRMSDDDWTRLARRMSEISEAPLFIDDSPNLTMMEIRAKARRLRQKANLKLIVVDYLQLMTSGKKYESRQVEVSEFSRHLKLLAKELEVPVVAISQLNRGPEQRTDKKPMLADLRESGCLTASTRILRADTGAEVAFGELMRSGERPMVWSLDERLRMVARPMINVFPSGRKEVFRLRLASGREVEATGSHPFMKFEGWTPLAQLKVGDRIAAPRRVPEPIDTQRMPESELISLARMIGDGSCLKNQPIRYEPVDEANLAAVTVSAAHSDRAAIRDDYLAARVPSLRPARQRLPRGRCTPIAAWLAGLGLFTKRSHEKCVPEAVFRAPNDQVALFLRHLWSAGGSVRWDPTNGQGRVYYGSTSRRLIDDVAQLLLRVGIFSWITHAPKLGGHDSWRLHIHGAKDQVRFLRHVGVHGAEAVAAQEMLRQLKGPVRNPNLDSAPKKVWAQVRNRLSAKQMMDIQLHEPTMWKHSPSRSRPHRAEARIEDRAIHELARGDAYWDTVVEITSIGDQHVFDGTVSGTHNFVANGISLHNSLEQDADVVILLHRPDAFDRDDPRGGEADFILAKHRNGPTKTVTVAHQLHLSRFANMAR

[2] = target: Peroxisome proliferator-activated receptor gamma/Nuclear receptor coactivator 2 (Homo sapiens, UniProt P37231); test: TR-FRET dose response biochemical High Throughput Screening assay for agonists of the steroid receptor coactivator 2 (SRC-2) recruitment by the peroxisome proliferator-activated receptor gamma (PPAR gamma): non-selective agonists. [Related pubchem assays: 1297, 1032 ]; assay type: functional
Protein RecA = target: T2, Protein RecA (Mycobacterium tuberculosis, UniProt P9WHJ3); test: Fluorescence Cell-Free Homogeneous Dose Retest to Identify Inhibitors of RecA-Intein Splicing Activity. [Related pubchem assays (depositor defined):AID2097, AID2223, AID489010, AID492950]; assay type: functional
T2 sequence (P9WHJ3 whole entry): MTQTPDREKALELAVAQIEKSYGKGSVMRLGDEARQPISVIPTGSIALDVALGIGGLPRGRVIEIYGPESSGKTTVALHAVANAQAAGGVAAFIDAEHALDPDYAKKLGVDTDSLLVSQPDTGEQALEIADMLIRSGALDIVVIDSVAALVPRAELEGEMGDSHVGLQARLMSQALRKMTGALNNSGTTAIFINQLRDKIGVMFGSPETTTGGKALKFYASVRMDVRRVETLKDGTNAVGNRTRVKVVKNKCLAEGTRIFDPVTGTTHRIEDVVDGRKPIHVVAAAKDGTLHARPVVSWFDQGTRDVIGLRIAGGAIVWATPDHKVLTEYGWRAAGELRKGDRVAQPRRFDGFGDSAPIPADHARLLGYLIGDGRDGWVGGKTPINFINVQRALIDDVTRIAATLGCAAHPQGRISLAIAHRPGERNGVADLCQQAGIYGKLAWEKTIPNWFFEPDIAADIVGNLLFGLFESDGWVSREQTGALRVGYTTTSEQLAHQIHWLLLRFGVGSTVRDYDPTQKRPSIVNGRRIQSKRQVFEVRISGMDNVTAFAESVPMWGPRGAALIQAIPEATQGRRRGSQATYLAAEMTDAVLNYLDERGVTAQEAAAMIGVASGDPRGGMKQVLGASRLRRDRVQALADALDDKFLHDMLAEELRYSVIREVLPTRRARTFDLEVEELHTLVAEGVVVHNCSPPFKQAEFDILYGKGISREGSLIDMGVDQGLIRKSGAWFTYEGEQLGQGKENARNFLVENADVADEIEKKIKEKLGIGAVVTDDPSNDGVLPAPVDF

Large T antigen = Large T antigen (Simian virus 40, UniProt P03070); assay type: functional, Betapolyomavirus macacae;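 note: Confirmatory-stage PubChem screen for compounds that inhibit SV40 T antigen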
Vero = Vero cell cytotoxicity, cytotoxicity control for flavivirus capping enzyme inhibitors (AID 588742); assay type: functional; conditions: Chlorocebus sabaeus
[3] = target: T3, Endoribonuclease toxin MazF (Escherichia coli K-12, UniProt P0AE70); test: MazF toxin RNase activators, dose response, biochemical, fluorescence, single-stranded RNA substrate, uHTS hits (AID 588481); assay type: functional
T3 sequence (P0AE70 whole entry): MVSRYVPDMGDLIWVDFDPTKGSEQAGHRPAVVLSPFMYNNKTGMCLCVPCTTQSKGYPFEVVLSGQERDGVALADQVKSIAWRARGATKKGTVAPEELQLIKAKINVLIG

[4] = target: Peroxisome proliferator-activated receptor gamma/Nuclear receptor coactivator 3 (Homo sapiens, UniProt P37231); test: TR-FRET dose response biochemical High Throughput Screening assay for agonists of the steroid receptor coactivator 3 (SRC-3) recruitment by the peroxisome proliferator-activated receptor gamma (PPAR gamma): non-selective agonists. [Related pubchem assays: 1301 (Confirmation screen.), 1048 (Primary screen.)]; assay type: functional
[5] = target: Peroxisome proliferator-activated receptor gamma/Nuclear receptor coactivator 1 (Homo sapiens, UniProt P37231); test: TR-FRET dose response biochemical High Throughput Screening assay for agonists of the steroid receptor coactivator 1 (SRC-1) recruitment by the peroxisome proliferator-activated receptor gamma (PPAR gamma): non-selective agonists. [Related pubchem assays (depositor defined):AID1300, AID1808, AID504735, AID631]; assay type: protein assay
Chain of Peroxisome proliferator-activated receptor gamma/Nuclear receptor coactivator 1 (P37231 whole entry): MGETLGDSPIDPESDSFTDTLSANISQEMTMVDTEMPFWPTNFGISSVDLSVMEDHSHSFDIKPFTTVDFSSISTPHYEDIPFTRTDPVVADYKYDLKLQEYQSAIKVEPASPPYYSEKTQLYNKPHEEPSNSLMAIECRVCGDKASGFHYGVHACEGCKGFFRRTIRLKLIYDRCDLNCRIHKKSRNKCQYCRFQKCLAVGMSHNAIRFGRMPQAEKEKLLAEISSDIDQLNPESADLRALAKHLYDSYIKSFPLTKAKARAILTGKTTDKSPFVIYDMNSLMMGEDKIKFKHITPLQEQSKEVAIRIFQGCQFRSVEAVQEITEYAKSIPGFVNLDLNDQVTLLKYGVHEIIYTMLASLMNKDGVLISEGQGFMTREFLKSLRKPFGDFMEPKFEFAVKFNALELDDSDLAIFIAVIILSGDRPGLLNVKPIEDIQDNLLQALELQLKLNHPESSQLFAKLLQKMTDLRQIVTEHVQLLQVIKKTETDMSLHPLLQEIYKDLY
Chain of Peroxisome proliferator-activated receptor gamma/Nuclear receptor coactivator 1 (Q15788 whole entry, further chain): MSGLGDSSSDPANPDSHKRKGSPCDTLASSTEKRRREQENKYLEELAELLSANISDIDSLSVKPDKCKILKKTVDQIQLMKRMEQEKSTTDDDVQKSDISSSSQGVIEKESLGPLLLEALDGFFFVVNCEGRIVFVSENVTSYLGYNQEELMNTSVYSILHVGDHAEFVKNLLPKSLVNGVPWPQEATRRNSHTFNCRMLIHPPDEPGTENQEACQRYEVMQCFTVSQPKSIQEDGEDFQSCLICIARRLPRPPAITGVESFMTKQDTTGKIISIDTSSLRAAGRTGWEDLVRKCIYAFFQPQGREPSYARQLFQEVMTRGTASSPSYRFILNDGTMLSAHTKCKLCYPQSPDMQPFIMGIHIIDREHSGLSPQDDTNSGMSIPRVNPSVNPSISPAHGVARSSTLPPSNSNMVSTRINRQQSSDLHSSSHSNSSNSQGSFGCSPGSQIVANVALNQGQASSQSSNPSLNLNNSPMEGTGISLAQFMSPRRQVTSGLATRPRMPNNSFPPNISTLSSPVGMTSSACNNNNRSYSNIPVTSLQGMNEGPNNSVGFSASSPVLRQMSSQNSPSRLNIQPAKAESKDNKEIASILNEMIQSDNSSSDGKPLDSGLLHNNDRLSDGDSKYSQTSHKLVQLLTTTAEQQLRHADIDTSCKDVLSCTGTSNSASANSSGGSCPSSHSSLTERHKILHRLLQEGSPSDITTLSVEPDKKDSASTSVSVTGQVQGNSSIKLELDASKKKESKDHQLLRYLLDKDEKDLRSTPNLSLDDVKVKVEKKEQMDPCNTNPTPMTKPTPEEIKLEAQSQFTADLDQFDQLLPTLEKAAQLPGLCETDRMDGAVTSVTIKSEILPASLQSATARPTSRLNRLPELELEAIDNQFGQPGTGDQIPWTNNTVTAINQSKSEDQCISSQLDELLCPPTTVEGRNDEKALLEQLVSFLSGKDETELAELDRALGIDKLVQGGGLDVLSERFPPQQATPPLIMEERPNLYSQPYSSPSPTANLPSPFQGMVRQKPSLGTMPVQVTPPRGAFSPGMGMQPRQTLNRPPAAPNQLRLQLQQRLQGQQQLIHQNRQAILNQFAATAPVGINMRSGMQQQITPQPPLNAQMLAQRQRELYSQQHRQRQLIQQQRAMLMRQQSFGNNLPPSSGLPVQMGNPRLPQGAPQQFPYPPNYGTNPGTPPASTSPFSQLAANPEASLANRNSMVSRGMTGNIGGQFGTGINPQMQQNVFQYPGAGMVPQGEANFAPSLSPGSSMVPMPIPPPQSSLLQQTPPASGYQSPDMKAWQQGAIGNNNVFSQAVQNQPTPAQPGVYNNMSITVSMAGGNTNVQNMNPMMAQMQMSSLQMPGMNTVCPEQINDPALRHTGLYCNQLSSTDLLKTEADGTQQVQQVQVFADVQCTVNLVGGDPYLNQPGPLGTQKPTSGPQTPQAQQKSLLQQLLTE

[6] = inhibition of K1F phage lysis, E. coli UTI89, bacterial capsule biogenesis inhibitors, alamar blue (AID 488966); assay type: functional
[7] = target: T3, Endoribonuclease toxin MazF; test: fluorescent RNA oligo signal without MazF, dose response, counter-screen for MazEF activator project, biochemical, fluorescence, single-stranded RNase substrate (AID 588502); assay type: functional
[8] = Fluorescence-based cell-based high throughput dose response assay for inhibitors of the interaction of nucleotide-binding oligomerization domain containing 2 (NOD2) and the receptor-interacting serine-threonine kinase 2 (RIPK2).; assay type: functional; conditions: Homo sapiens
[9] = target: Bifunctional protein GlmU (Mycobacterium tuberculosis, UniProt P9WMN3); test: Inhibitors of Mycobacterial Glucosamine-1-phosphate acetyl transferase (GlmU). Secondary screen.; design: species or system Mycobacterium tuberculosis H37Rv
Chain of Bifunctional protein GlmU (P9WMN3 whole entry): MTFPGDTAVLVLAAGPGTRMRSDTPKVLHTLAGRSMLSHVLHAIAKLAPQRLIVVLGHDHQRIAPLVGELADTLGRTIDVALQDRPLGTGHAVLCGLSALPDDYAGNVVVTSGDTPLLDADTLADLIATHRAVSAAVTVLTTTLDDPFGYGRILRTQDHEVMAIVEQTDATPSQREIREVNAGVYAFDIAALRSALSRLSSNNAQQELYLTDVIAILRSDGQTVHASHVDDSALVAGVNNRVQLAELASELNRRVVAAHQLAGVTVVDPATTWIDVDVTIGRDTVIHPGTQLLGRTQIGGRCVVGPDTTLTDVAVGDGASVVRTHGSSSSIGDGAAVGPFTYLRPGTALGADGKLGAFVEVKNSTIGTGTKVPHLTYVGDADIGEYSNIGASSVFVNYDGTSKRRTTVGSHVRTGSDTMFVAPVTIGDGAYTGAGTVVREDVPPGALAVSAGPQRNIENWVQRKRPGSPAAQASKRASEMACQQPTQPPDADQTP

BJ [10] = test: cells; assay type: functional, cell-based; conditions: Homo sapiens
[11] = target: Heat shock protein HSP 90-alpha (Homo sapiens, UniProt P07900); assay type: functional, organism-based
BJ [12] = test: cytotoxicity toward Ras-transformed BJeLR fibroblasts, dose response, cell-based, alamar blue fluorescence, cherrypicked samples (AID 2631); assay type: functional; conditions: Homo sapiens;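 note: confirmatory dose-response assay in RAS-dependent BJ fibroblasts engineered with TERT, LT and ST, with cytotoxicity read by fluorescence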
[13] = target: T4, Mannose-6-phosphate isomerase (Homo sapiens, UniProt P34949); test: human PMI inhibitors, high substrate, primary screen, biochemical, fluorescence intensity, high mannose 6-phosphate (AID 1220)
T4 sequence (P34949 whole entry): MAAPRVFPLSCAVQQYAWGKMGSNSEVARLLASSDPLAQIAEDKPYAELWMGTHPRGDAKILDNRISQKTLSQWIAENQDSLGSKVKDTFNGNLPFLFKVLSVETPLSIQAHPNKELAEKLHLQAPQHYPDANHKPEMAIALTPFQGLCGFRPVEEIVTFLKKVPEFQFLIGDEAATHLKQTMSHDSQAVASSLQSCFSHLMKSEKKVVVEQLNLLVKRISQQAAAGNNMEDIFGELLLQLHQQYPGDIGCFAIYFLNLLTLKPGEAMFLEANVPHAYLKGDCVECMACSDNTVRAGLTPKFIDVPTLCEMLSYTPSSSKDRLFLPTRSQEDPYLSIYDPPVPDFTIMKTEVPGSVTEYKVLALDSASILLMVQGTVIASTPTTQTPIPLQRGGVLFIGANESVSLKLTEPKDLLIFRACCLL

[14] = target: T4, Mannose-6-phosphate isomerase; test: inhibitors of human PMI, primary screen, biochemical, fluorescence intensity, coupled assay (AID 1209)
BJ [15] = test: cytotoxicity toward BJ-TERT fibroblasts, dose response, cell-based, RAS-independent, luminescence (AID 1933); assay type: functional; conditions: Homo sapiens
X-box-binding protein 1 = X-box-binding protein 1 (Homo sapiens, UniProt P17861); assay type: functional, Cricetulus griseus;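 note: confirmatory dose-response counter-screen serving a CHOP assay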
Chain of X-box-binding protein 1 (P17861 whole entry): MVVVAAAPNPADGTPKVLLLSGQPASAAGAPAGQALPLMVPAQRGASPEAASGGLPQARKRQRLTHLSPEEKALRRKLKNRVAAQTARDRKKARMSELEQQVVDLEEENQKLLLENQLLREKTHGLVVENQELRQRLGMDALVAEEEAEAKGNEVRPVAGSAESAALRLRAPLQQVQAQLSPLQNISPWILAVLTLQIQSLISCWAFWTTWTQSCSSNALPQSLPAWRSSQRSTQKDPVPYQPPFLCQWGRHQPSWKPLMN

[16] = cytotoxicity toward DRD oncogenic fibroblasts, dose response, cell-based, non-viral oncogenic, luminescence (AID 1934); assay type: functional; conditions: Homo sapiens
J774.A1 = test: Confirmation of image-based Screening Assay for Inhibitors of Phagocytosis. [Related pubchem assays (depositor defined):AID1029, AID1643]; assay type: functional, cell-based; conditions: Mus musculus
BJ [17] = test: cytotoxicity toward BJ-TERT-LT-ST fibroblasts, dose response, cell-based, RAS-independent, luminescence (AID 1935); assay type: functional; conditions: Homo sapiens;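 note: BJ fibroblasts immortalized with TERT plus LT and ST oncogenes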
Prothrombin = Prothrombin (Bos taurus, UniProt P00735); test: thrombin inhibition, dose response, biochemical, fluorescence polarization, uHTS hits (AID 602369); assay type: functional
[18] = target: G-protein coupled receptor 55 (Homo sapiens, UniProt Q9Y2T6); test: GPR55 antagonists, SAR follow-up, counter-screen for GPR35 antagonist project, imaging, image-based (AID 2397); assay type: functional
[19] = target: T5, Tyrosine-protein phosphatase non-receptor type 22 (Homo sapiens, UniProt Q9Y2R2); test: LYP (PTPN22) phosphatase inhibitor potency, SAR follow-up, biochemical, pCAP fluorogenic substrate, fluorescence, set 3 (AID 449727); assay type: functional
T5 sequence (Q9Y2R2 whole entry): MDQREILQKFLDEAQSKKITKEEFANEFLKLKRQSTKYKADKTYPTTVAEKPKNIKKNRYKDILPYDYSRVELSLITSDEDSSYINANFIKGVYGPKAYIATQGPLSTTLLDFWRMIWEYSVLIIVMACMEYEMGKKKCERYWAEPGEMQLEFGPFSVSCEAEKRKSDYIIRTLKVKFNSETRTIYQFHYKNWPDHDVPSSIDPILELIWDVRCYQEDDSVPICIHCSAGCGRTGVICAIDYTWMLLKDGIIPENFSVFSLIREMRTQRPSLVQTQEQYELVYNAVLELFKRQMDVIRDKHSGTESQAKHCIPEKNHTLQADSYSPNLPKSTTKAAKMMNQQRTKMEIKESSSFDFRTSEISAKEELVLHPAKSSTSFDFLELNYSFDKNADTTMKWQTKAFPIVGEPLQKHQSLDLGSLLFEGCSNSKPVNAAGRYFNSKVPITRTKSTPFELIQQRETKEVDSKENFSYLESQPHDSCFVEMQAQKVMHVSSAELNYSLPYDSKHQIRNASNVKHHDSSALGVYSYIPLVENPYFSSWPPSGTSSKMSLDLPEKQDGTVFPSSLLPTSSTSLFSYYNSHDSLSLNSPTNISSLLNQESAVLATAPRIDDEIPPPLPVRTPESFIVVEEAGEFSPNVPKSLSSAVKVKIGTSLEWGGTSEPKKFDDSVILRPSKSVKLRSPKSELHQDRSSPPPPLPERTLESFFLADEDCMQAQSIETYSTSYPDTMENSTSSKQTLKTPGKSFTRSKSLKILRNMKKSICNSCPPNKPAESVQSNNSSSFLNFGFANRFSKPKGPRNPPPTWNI

[20] = target: 72 kDa type IV collagenase (Homo sapiens, UniProt P08253); test: Dose Response validation of uHTS RPN11 inhibitor hits using a MMP-2 Fluorescence assay.; assay type: functional
Chain of 72 kDa type IV collagenase (P08253 whole entry): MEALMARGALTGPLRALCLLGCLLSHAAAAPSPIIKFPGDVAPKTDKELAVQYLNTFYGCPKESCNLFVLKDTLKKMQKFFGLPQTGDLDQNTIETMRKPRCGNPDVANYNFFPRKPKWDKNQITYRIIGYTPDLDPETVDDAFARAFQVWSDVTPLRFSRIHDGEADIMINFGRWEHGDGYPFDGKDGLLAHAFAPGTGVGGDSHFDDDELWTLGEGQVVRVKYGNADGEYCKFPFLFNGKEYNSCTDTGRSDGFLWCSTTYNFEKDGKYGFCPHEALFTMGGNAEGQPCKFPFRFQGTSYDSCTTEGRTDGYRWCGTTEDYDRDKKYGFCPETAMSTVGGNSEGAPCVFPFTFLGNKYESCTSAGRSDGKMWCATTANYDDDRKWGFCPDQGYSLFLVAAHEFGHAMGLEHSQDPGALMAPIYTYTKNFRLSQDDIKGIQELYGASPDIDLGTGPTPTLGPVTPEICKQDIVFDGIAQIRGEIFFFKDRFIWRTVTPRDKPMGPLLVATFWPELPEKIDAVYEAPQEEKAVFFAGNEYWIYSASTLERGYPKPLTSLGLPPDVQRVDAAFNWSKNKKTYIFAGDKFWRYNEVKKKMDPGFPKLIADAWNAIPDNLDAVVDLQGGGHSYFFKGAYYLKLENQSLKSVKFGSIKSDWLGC

[21] = target: T6, G-protein coupled receptor 35 (Homo sapiens, UniProt Q9HC97); test: GPR35 antagonists blocking zaprinast-driven arrestin recruitment, primary screen, imaging, U2OS, beta-arrestin-GFP, zaprinast agonist (AID 2058); assay type: functional;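 note: antagonist potency meaning inhibition of agonist-induced arrestin redistribution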
T6 sequence (Q9HC97 whole entry): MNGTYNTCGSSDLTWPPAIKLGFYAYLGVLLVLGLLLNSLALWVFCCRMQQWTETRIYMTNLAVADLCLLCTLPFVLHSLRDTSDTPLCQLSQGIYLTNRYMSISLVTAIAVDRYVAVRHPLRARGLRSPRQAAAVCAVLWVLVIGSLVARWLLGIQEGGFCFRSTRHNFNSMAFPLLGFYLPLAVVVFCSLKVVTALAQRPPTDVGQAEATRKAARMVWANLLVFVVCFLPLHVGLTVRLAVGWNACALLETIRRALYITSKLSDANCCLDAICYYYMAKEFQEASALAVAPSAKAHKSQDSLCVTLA

[22] = target: Tyrosine-protein phosphatase non-receptor type 12 (Homo sapiens, UniProt Q05209); test: SAR Selectivity Analysis of small molecule inhibitors of PEST using pCAP in a fluorescence assay. [Related pubchem assays (depositor defined):AID1779, AID1784, AID2135]; assay type: functional
[23] = target: T6, G-protein coupled receptor 35; test: SAR Analysis for the identification of Selective Antagonists of ERK1/2 Activity in GPR35-Overexpressing U2OS Cells. [Related pubchem assays: 2079, 2058 ]; assay type: functional, cell-based
[24] = target: 26S proteasome non-ATPase regulatory subunit 14 (Homo sapiens, UniProt O00487); test: inhibition of proteasome subunit RPN11 – biochemical, fluorescence polarization, uHTS hits, confirmation (AID 602368); assay type: functional
Chain of 26S proteasome non-ATPase regulatory subunit 14 (O00487 whole entry): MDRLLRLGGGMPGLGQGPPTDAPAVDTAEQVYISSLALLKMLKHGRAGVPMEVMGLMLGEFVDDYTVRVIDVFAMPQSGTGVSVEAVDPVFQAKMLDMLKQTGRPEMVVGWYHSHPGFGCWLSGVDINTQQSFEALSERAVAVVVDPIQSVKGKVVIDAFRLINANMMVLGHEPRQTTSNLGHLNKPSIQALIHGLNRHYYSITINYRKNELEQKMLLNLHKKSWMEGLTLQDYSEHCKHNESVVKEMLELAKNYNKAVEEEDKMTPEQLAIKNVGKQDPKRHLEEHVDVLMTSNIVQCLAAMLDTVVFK

[25] = target: T5, Tyrosine-protein phosphatase non-receptor type 22; test: SAR LYP1 Fluorescent Assay using OMFP substrate for In Vitro dose response studies - Set 3. [Related pubchem assays (depositor defined):AID1779, AID1784, AID2140, AID2686]; assay type: functional
[26] = Luminescence Cell Based Dose Confirmation HTS to Identify Activators of 5'UTR Stem-Loop Driven Alpha-Synuclein mRNA Translation in H4 Neuroglioblastoma Cells. [Related pubchem assays (depositor defined):AID1813, AID1829]; assay type: functional; conditions: Homo sapiens
CAAX prenyl protease 2 = target: T7, CAAX prenyl protease 2 (Homo sapiens, UniProt Q9Y256); test: human Rce1 protease inhibitors, dose response, biochemical, yeast membranes, quenched-peptide fluorescence, cherry-pick (AID 588849)
T7 sequence (Q9Y256 whole entry): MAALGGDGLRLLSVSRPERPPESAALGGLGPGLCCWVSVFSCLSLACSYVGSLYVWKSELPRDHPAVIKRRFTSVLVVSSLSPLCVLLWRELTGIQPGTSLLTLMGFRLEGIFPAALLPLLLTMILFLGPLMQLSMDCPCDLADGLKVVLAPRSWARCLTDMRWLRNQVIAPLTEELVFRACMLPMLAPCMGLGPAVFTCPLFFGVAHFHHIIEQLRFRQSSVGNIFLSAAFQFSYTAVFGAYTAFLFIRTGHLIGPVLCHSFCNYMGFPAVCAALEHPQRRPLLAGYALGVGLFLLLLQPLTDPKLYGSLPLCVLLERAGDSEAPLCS

Trypsin = Trypsin (Sus scrofa, UniProt P00761); test: porcine trypsin inhibitors, dose response, selectivity assay for Rce1 protease inhibitor project, biochemical, quenched peptide fluorescence, cherry-pick (AID 488789)
Chain of Trypsin (P00761 whole entry): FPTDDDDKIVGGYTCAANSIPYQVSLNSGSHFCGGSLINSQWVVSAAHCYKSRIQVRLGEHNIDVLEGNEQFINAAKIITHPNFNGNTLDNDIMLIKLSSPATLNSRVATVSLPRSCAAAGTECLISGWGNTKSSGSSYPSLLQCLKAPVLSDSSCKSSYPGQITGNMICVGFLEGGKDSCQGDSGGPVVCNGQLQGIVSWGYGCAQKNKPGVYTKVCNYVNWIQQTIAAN

CC(=O)Oc1c(/C=C(\C#N)C(N)=O)[nH]c2ccccc12
AC50 [1]: > 380 µM (inconclusive)
EC50 [2]: 22.6 µM (not active)
EC50 (Protein RecA): 0.0314 µM (active)
IC50 (Large T antigen): 22.8 µM (active)
CC50 (Vero): > 40 µM (active)
EC50 [3]: > 99 µM (inactive)
EC50 [4]: > 79.4 µM (not active)
EC50 [5]: 20.5 µM (inactive)
IC50 [6]: > 300 µM (active)
EC50 [7]: > 99 µM (inactive)

CC1=CC(=O)C=C(C)C1=NOS(=O)(=O)c1ccccc1
IC50 [8]: 5.52 µM (active)
IC50 [9]: 165 µM (active)
EC50 (BJ [10]): 4.78 µM (active)
AC50 [11]: 0.928 µM (active)
EC50 (BJ [12]): 1.35 µM (inconclusive)
IC50 [13]: 47.3 µM (active)
IC50 [14]: 14.4 µM (active)
EC50 (BJ [15]): 4.5 µM (active)
Absolute IC50 (XBP1) (X-box-binding protein 1): 10 µM
EC50 [16]: 7.26 µM (active)
IC50 (J774.A1): 0.47 µM (active)
EC50 (BJ [17]): 5.67 µM (inconclusive)

COc1ccc(/C=C2\SC(=S)N(CCCC(=O)Nc3cccc(C(=O)O)c3)C2=O)cc1OC
IC50 (Prothrombin): 23.9 µM (active)
IC50 [18]: > 32 µM (inactive)
IC50 [19]: 95.9 µM (active)
IC50 [20]: > 100 µM (inactive)
IC50 [21]: 0.564 µM (active)
IC50 [22]: 58.8 µM (active)
IC50 [23]: 1.2 µM (active)
IC50 [24]: 17.7 µM (active)
IC50 [25]: > 100 µM (inactive)

FC(F)(F)c1ccc(Cl)c(Nc2nnc(-c3ccncc3)s2)c1
EC50 [26]: > 195 µM (inactive)

C=CCn1c(=O)c2c(nc(-c3ccc(S(=O)(=O)O)cc3)n2C)n(C)c1=O
AC50 (CAAX prenyl protease 2): 5.44 µM (active)
AC50 (Trypsin): 1.41 µM (active)
